Experimental data published in patent US20150329512A1, “METHOD AND PHARMACEUTICAL COMPOSITION FOR TREATING LUNG CANCER” (National Dong Hua University, priority 2014, published 2015).

Tests used:
A549 cells = assay: Cell cycle analysis by flow cytometer (PI staining); type: cell-based, human; conditions: A549
Protocol: (§1) The results of Example 2 in cell viability hinted the effects of HCD, PG, and Dox on arresting cell cycle. In this example, the phase of cell cycle of A549 cells and Anti-Dox-A549 cells after the treatment listed in Table 1 was determined by flow cytometer. Briefly, 7×10^4 cells per well were to inoculated in 12-wells plate and incubated overnight at 37° C., 5% CO2. Then, cells were treated according to the treatment listed in Table 1 by indicated time period. After treatment, cells were harvested by trypsin and fixed with 70% ethanol at −20° C. for at least 3 hr. The cells were washed in cold PBS twice and then incubated with 1 ml (v/v) staining solution (20 μg/m1 propidium iodide (PI), 0.1% Triton X-100, 0.2 mg/ml Rnase) at 37° C. for 30 minutes. Lastly, cells were analyzed by flow cytometer (Cytomics™ FC500, Backman, Fullerton, Calif., USA). Data from 10,000 cells were collected for each experimental group.

Anti-Dox-A549 cells = assay: as above; type: cell-based, human; conditions: Anti-Dox-A549
Protocol: as §1

[1] = test system: human lung cancer in lung of mice; assay: Mouse model bearing human lung cancer in lung (A549 or Anti-Dox-A549 cells injected); conditions: HCD 0.0318 or 1.272 mg/kg, PG 0.1615 or 0.646 mg/kg body weight, IT injection to the lung, monitored every five days for thirty days
Protocol: The animal experiments were approved by the National Dong-Hwa University Animal Ethics Committee and the experimental protocols were used according to the “Guide for the Care and Use of Laboratory Animals” of National Dong-Hwa University. 1×10^7 of A549 cells or Anti-Dox-A549 cells were suspended in PBS to prepare cell suspensions. On day 0, C57/BL6 mice (6-8 weeks old, n=6) were weighted and anesthetic using pentobarbital (5 mg/ml). Then, the mice were injected with the cell suspension (1×10^7 cells per mouse) into the lung by IT. The injection was repeated every 7 days for 21 days. Another group of mice were injected with 10% EtOH as comparative group according to the same procedure set forth above.
After the establishment of human lung cancer in the experimental mice, the mice were maintained for one more week and then treated with HCD (0.0318 or 1.272 mg/kg body weight, in 10% ETOH with PBS), PG (0.1615 or 0.646 mg/kg body weight, in 10% ETOH with PBS) or 10% EtOH by IT injection (intrathecal injection) to the lung. The body weight was monitored every five days for thirty days. After thirty days, the mice were sacrificed and the lungs were checked for marker of human lung adenocarcinoma by H&E and IHC staining. The livers, kidneys and spleens of the mice were also examined to confirm the cytotoxicity of HCD and PG and to see if there was any metastasis happened.

SMILES: CCCCCC1=C/C(=C/c2[nH]c(-c3ccc[nH]3)cc2OC)N=C1C [PG, Prodigiosin]
- G0/G1 (%) (A549 cells; PG 2.5 μM, 6 hr): 46.3 ± 3.4 %
- G2/M (%) (A549 cells; PG 2.5 μM, 6 hr): 32.3 ± 3.1 %
- S (%) (A549 cells; PG 2.5 μM, 6 hr): 17.3 ± 1.2 %
- Sub G1 (%) (A549 cells; PG 2.5 μM, 6 hr): 0.3 ± 0.1%
- G0/G1 (%) (A549 cells; PG 2.5 μM, 12 hr): 62.7 ± 2.7%
- G2/M (%) (A549 cells; PG 2.5 μM, 12 hr): 27.6 ± 0.7 %
- S (%) (A549 cells; PG 2.5 μM, 12 hr): 6.6 ± 2.1 %
- Sub G1 (%) (A549 cells; PG 2.5 μM, 12 hr): 0.4 ± 0.2%
- G0/G1 (%) (A549 cells; PG 2.5 μM, 24 hr): 85 ± 0.6^ %
- G2/M (%) (A549 cells; PG 2.5 μM, 24 hr): 11.6 ± 0.7%
- S (%) (A549 cells; PG 2.5 μM, 24 hr): 1.9 ± 0.15 %
- Sub G1 (%) (A549 cells; PG 2.5 μM, 24 hr): 0.26 ± 0.05%
- G0/G1 (%) (A549 cells; PG 5 μM, 6 hr): 42.9 ± 2.1 %
- G2/M (%) (A549 cells; PG 5 μM, 6 hr): 34.8 ± 0.9 %
- S (%) (A549 cells; PG 5 μM, 6 hr): 18.2 ± 0.8 %
- Sub G1 (%) (A549 cells; PG 5 μM, 6 hr): 0.26 ± 0.05%
- G0/G1 (%) (A549 cells; PG 5 μM, 12 hr): 53.3 ± 1.2 %
- G2/M (%) (A549 cells; PG 5 μM, 12 hr): 33.1 ± 0.2 %
- S (%) (A549 cells; PG 5 μM, 12 hr): 10.0 ± 2.0 %
- Sub G1 (%) (A549 cells; PG 5 μM, 12 hr): 0.36 ± 0.2%
- G0/G1 (%) (A549 cells; PG 5 μM, 24 hr): 76.2 ± 8.1 %
- G2/M (%) (A549 cells; PG 5 μM, 24 hr): 22.2 ± 1.1%
- S (%) (A549 cells; PG 5 μM, 24 hr): 3.0 ± 0.75 %
- Sub G1 (%) (A549 cells; PG 5 μM, 24 hr): 0.23 ± 0.05%
- G0/G1 (%) (A549 cells; PG 10 μM, 6 hr): 43.8 ± 3.1 %
- G2/M (%) (A549 cells; PG 10 μM, 6 hr): 27 ± 2.9%
- S (%) (A549 cells; PG 10 μM, 6 hr): 18.8 ± 0.5 %
- Sub G1 (%) (A549 cells; PG 10 μM, 6 hr): 0.33 ± 0.05%
- G0/G1 (%) (A549 cells; PG 10 μM, 12 hr): 41.6 ± 1.3 %
- G2/M (%) (A549 cells; PG 10 μM, 12 hr): 29.1 ± 3.0 %
- S (%) (A549 cells; PG 10 μM, 12 hr): 16.6 ± 1.4%
- Sub G1 (%) (A549 cells; PG 10 μM, 12 hr): 0.46 ± 0.1%
- G0/G1 (%) (A549 cells; PG 10 μM, 24 hr): 43.8 ± 2.4 %
- G2/M (%) (A549 cells; PG 10 μM, 24 hr): 26.5 ± 10.0%
- S (%) (A549 cells; PG 10 μM, 24 hr): 9.1 ± 1.7 %
- Sub G1 (%) (A549 cells; PG 10 μM, 24 hr): 0.9 ± 0.7%
- G0/G1 (%) (Anti-Dox-A549 cells; PG 2.5 μM, 6 hr): 58.9 ± 7.1%
- G2/M (%) (Anti-Dox-A549 cells; PG 2.5 μM, 6 hr): 23.5 ± 1.9%
- S (%) (Anti-Dox-A549 cells; PG 2.5 μM, 6 hr): 18.5 ± 0.5%
- Sub G1 (%) (Anti-Dox-A549 cells; PG 2.5 μM, 6 hr): 2.2 ± 0.1 %
- G0/G1 (%) (Anti-Dox-A549 cells; PG 2.5 μM, 12 hr): 65.3 ± 2.9%
- G2/M (%) (Anti-Dox-A549 cells; PG 2.5 μM, 12 hr): 17.2 ± 6.5%
- S (%) (Anti-Dox-A549 cells; PG 2.5 μM, 12 hr): 13.8 ± 4.7%
- Sub G1 (%) (Anti-Dox-A549 cells; PG 2.5 μM, 12 hr): 1.6 ± 1.2%
- G0/G1 (%) (Anti-Dox-A549 cells; PG 2.5 μM, 24 hr): 81.8 ± 5.7%
- G2/M (%) (Anti-Dox-A549 cells; PG 2.5 μM, 24 hr): 8.8 ± 1.4%
- S (%) (Anti-Dox-A549 cells; PG 2.5 μM, 24 hr): 3.1 ± 1.3 %
- Sub G1 (%) (Anti-Dox-A549 cells; PG 2.5 μM, 24 hr): 0.9 ± 0.3%
- G0/G1 (%) (Anti-Dox-A549 cells; PG 5 μM, 6 hr): 56 ± 1.3%
- G2/M (%) (Anti-Dox-A549 cells; PG 5 μM, 6 hr): 23.6 ± 2.3%
- S (%) (Anti-Dox-A549 cells; PG 5 μM, 6 hr): 18.7 ± 0.8%
- Sub G1 (%) (Anti-Dox-A549 cells; PG 5 μM, 6 hr): 1.9 ± 0.3%
- G0/G1 (%) (Anti-Dox-A549 cells; PG 5 μM, 12 hr): 62.7 ± 4.7 %
- G2/M (%) (Anti-Dox-A549 cells; PG 5 μM, 12 hr): 19.2 ± 6.9%
- S (%) (Anti-Dox-A549 cells; PG 5 μM, 12 hr): 16.8 ± 5.5%
- Sub G1 (%) (Anti-Dox-A549 cells; PG 5 μM, 12 hr): 2.9 ± 1.0%
- G0/G1 (%) (Anti-Dox-A549 cells; PG 5 μM, 24 hr): 76.2 ± 6.0%
- G2/M (%) (Anti-Dox-A549 cells; PG 5 μM, 24 hr): 13.8 ± 1.7%
- S (%) (Anti-Dox-A549 cells; PG 5 μM, 24 hr): 3.7 ± 2.0 %
- Sub G1 (%) (Anti-Dox-A549 cells; PG 5 μM, 24 hr): 4.3 ± 5.3%
- G0/G1 (%) (Anti-Dox-A549 cells; PG 10 μM, 6 hr): 54.6 ± 3.0 %
- G2/M (%) (Anti-Dox-A549 cells; PG 10 μM, 6 hr): 19.8 ± 6.6%
- S (%) (Anti-Dox-A549 cells; PG 10 μM, 6 hr): 22.9 ± 3.4 %
- Sub G1 (%) (Anti-Dox-A549 cells; PG 10 μM, 6 hr): 2 ± 0.6%
- G0/G1 (%) (Anti-Dox-A549 cells; PG 10 μM, 12 hr): 53.2 ± 2.5 %
- G2/M (%) (Anti-Dox-A549 cells; PG 10 μM, 12 hr): 22.8 ± 6.4%
- S (%) (Anti-Dox-A549 cells; PG 10 μM, 12 hr): 21.4 ± 3.7%
- Sub G1 (%) (Anti-Dox-A549 cells; PG 10 μM, 12 hr): 1.8 ± 0.2%
- G0/G1 (%) (Anti-Dox-A549 cells; PG 10 μM, 24 hr): 44.3 ± 7.7 %
- G2/M (%) (Anti-Dox-A549 cells; PG 10 μM, 24 hr): 27.9 ± 1.9 %
- S (%) (Anti-Dox-A549 cells; PG 10 μM, 24 hr): 11.7 ± 3.7%
- Sub G1 (%) (Anti-Dox-A549 cells; PG 10 μM, 24 hr): 6.9 ± 4.3%
- body weight of the experimental mice [1]: did not show significantly change
